The target of data set [1] is T1, hA2B AR (Homo sapiens, UniProt P29275).
T1 construct: expressed in transfected cells; host or cells: CHO cells
T1 sequence (P29275 1-332): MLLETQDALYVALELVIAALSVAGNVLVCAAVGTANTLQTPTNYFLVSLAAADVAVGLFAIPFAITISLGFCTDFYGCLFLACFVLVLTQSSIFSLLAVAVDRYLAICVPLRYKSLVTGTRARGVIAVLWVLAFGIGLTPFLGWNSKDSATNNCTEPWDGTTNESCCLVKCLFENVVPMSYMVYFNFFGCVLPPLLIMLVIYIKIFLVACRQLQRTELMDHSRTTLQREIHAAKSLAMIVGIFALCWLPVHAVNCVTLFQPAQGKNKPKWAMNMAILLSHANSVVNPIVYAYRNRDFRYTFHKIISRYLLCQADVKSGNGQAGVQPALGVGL
The experiment in a line: Inhibition of NECA stimulated adenylyl cyclase activity (cAMP assay) in CHO cells expressing hA2B receptor. The data set is classed as cell-based. The conditions noted are these: for inhibition at 10 µM: CHO, at 10 μM of tested compound, cAMP assay, read-out: hA2BAR percentage of inhibition (I%); for IC50: NECA stimulated cAMP, hA2B CHO cells, read-out: hA2BAR IC50 (potency in cAMP assay). An excerpt:
At the end of the experiments, plates were read with the Perkin Elmer EnSight Multimode Plate Reader.
On the technique in general: Cyclic AMP is a second messenger, typically raised through Gs and lowered through Gi signalling.

Data set [2] deals with T2, hA2A AR (Homo sapiens, UniProt P29274). The experiment in a line: Competition binding of [3H]ZM241385 to hA2A AR in CHO cell membranes.
Experimental: (§1) For membrane preparation, the cells were washed with phosphate-buffered saline and scraped off T75 flasks in an ice-cold hypotonic buffer (5 mMTris-HCl, 1 mM EDTA, pH 7.4). The cell suspensions were homogenized with a Polytron, centrifuged for 30 min at 40,000× g at 4 °C and the resulting membrane pellets were used for competition binding experiments [44].
(§2) Non-specific binding was defined as binding in the presence of 1 μM DPCPX and was always <10% of the total binding [44]. […] Non-specific binding was defined as binding in the presence of 1 μM ABMECA and was always < 10% of the total binding [46]. Bound and free radioactivity were separated by filtering the assay mixture through Whatman GF/B glass fiber filters using a Brandel cell harvester (Brandel Instruments, Unterföhring, Germany).
(§3) The protein concentration was determined according to a Bio-Rad method with bovine albumin as a standard reference. […] Ki and IC50 values were calculated by the non-linear regression analysis using the equation for a sigmoid concentration-response curve (Graph-PAD Prism, San Diego, CA, USA).
The target of data set [3] is T3, hA3 AR (Homo sapiens, UniProt P0DMS8).
T3 sequence (P0DMS8 1-318): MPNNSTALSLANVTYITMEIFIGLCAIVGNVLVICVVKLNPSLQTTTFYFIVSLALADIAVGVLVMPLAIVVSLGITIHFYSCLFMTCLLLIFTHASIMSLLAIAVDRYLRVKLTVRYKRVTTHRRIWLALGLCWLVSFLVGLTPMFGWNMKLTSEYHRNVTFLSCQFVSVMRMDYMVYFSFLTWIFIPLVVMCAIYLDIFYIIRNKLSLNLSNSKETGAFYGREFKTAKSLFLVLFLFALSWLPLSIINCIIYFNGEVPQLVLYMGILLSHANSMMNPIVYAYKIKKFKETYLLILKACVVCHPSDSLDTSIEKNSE
The data set is described as follows: Competition binding of [125I]AB-MECA to hA3 AR in CHO cell membranes. To be noted: for inhibition at 10 µM: read-out: hA3AR percentage of inhibition (I%).
Experimental: as §1, §2, §3

Data set [4] deals with T4, hA1 AR (Homo sapiens, UniProt P30542).
T4 sequence (P30542 1-326): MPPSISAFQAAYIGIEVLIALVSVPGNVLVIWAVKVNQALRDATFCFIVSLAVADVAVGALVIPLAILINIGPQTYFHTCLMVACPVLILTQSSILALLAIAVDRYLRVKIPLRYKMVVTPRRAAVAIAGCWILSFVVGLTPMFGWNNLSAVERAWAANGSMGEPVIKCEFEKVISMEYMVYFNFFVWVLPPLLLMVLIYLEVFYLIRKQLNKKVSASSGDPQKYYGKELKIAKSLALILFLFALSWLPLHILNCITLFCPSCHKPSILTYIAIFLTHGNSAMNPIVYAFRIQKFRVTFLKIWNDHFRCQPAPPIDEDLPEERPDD
The data set is described as follows: Competition binding of [3H]DPCPX to hA1 AR in CHO cell membranes. To be noted: for inhibition at 10 µM: read-out: hA1AR percentage of inhibition (I%).
Experimental: as §1, §2, §3

Data set [5] concerns the target T2, hA2A AR. The experiment in a line: Cyclic AMP assay in CHO cells expressing hA2A AR (modulation of basal cAMP). The conditions noted are these: for Pharmacological Behavior / Intrinsic Activity: cyclic AMP assay, hA2A CHO cells; for Intrinsic Activity: mean ± SEM.
Experimental: CHO cells transfected with hAR subtypes were washed with phosphate-buffered saline, detached with trypsin, and centrifuged for 10 min at 200× g. […] At the end of the experiments, plates were read with the Perkin Elmer EnSight Multimode Plate Reader.
Ki and IC50 values were calculated by the non-linear regression analysis using the equation for a sigmoid concentration-response curve (Graph-PAD Prism, San Diego, CA, USA).

The source of these data is PMC7465344 (Pharmaceuticals, 2020).

Values joined by “and” are separate entries in the source; they are usually repeats but may differ in a detail not shown here. Equal values may be shown once. Read-outs that look alike come from different tables or passages of the source.

The term inhibition denotes the change of the read-out against control, counted positive when it falls. A word on the IC50: it is the point on the concentration scale where inhibition reaches its midpoint. What is called Ki is a dissociation constant, usually derived from enzyme kinetics or from competition with a known ligand. The term melting point denotes the temperature, or range, at which the solid turns liquid.

T2 sequence (P29274 whole entry): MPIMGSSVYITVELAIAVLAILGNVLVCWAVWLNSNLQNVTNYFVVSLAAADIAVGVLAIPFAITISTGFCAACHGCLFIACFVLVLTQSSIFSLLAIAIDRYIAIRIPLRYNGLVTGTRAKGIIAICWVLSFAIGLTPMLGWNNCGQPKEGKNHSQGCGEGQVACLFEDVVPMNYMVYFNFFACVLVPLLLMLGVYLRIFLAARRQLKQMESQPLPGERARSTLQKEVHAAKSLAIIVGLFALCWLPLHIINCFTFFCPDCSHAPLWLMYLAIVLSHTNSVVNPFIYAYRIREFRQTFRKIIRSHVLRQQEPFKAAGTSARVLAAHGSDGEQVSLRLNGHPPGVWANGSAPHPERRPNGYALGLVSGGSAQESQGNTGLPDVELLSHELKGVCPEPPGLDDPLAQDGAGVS

Turning to `Nc1nc(NCCN2CCC(Cc3ccccc3)CC2)nc2sc(-c3ccco3)nc12` [compound 10, N^5-(2-(4-Benzylpiperidin-1-yl)ethyl)-2-(furan-2-yl)thiazolo[5,4-d]pyrimidine-5,7-diamine], the melting point was 155 to 157 °C. Besides, in data set [1], the inhibition at 10 µM was 22% and the IC50 is over 10 µM. The same molecule had a Ki in data set [2] of 0.187 ± 0.016 µM. In addition, in data set [3], the Ki is over 10 µM and the inhibition at 10 µM was determined as 22%. For the same molecule, the Ki in data set [4] worked out at 0.725 ± 0.067 µM.

On to `Nc1nc(NCCN2CCN(CCc3ccccc3)CC2)nc2sc(-c3ccco3)nc12` [compound 13, 2-(Furan-2-yl)-N^5-(2-(4-phenethylpiperazin-1-yl)ethyl)thiazolo[5,4-d]pyrimidine-5,7-diamine], for which the inhibition at 10 µM in data set [1] is 29%; in data set [3], 33%. Moreover, the IC50 in data set [1] is over 10 µM. In addition, the figures for the Ki in data set [2], in data set [3] and in data set [4] were 0.037 ± 0.003 µM, over 10 µM and 0.522 ± 0.047 µM, respectively.

For the molecule `CCOC(=O)c1ccc(N2CCN(CCNc3nc(N)c4nc(-c5ccco5)sc4n3)CC2)cc1` [compound 16, Ethyl 4-(4-(2-((7-amino-2-(furan-2-yl)thiazolo[5,4-d]pyrimidin-5-yl)amino)ethyl)piperazin-1-yl) benzoate], the inhibition at 10 µM in data set [1] is 26%; in data set [3] it was 34%; in data set [4] it was 31%. Besides, in data set [1], the IC50 was over 10 µM. In addition, the values for the Ki in data set [2], in data set [3] and in data set [4] were 0.264 ± 0.024 µM, over 10 µM and over 10 µM, respectively.

With `COCCOc1ccc(N2CCN(CCNc3nc(N)c4nc(-c5ccco5)sc4n3)CC2)cc1` [compound 14, 2-(Furan-2-yl)-N^5-(2-(4-(4-(2-methoxyethoxy)phenyl)piperazin-1-yl)ethyl)thiazolo[5,4-d]pyrimidine-5,7-diamine], in data set [5], the concentration for half-maximal inhibition (IC50) turned out to be 0.0152 ± 0.0013 µM, the “Pharmacological Behavior” value is reported as “Inverse agonist” and the “Intrinsic Activity” value is given as −51 ± 5. Also, in data set [1], the inhibition at 10 µM stood at 17% and the IC50 was over 10 µM. In data set [2], this molecule registered a Ki of 0.0183 ± 0.0019 µM. This molecule also displayed a Ki in data set [3] of 1.49 ± 0.126 µM. Further, in data set [4], the Ki came to 0.452 ± 0.038 µM.

As for `COCCN1CCC(CNc2nc(N)c3nc(-c4ccco4)sc3n2)CC1` [compound 18, 2-(Furan-2-yl)-N^5-((1-(2-methoxyethyl)piperidin-4-yl)methyl)thiazolo[5,4-d]pyrimidine-5,7-diamine], the inhibition at 10 µM worked out at 11% in data set [1] and 28% in data set [3]. The IC50 in data set [1] was over 10 µM. Also, the figures for the Ki in data set [2], in data set [3] and in data set [4] were 0.802 ± 0.073 µM, over 10 µM and 0.524 ± 0.041 µM, respectively.

For `Nc1nc(NCCN2CCN(c3ccccc3)CC2)nc2sc(-c3ccco3)nc12` [compound 11, 2-(Furan-2-yl)-N^5-(2-(4-phenylpiperazin-1-yl)ethyl)thiazolo[5,4-d]pyrimidine-5,7-diamine], in data set [5], the IC50 stood at 0.00742 ± 0.00068 µM, the “Pharmacological Behavior” value is “Inverse agonist” and the “Intrinsic Activity” value is on record as −52 ± 4. In data set [1], the inhibition at 10 µM came to 13% and the IC50 was over 10 µM. In addition, the Ki in data set [2] (read-out: hA2AAR Ki, displacement of [3H]ZM241385, CHO cells, mean ± SEM, n = 3–6) is 0.0086 µM and 0.00862 µM. Further, in data set [3], the Ki was over 10 µM and the inhibition at 10 µM came to 15%. In addition, in data set [4], the Ki came to 0.102 ± 0.009 µM. In addition, the “hA1AR Ki” value in data set [4] (displacement of [3H]DPCPX, CHO cells, mean ± SEM, n = 3–6) is reported as “good affinities”.

Take `Nc1nc(NCCc2ccc(O)cc2)nc2nc(-c3ccco3)nn12` [ZM 241385, reference compound]: the Ki in data set [3] (read-out: hA3AR Ki, displacement of [125I]AB-MECA, CHO cells, mean ± SEM, n = 3–6) was 0.672 ± 0.051 µM.

As to `Nc1nc(N2CCN(CCN3CCCC3)CC2)nc2sc(-c3ccco3)nc12` [compound 8, 2-(Furan-2-yl)-5-(4-(2-(pyrrolidin-1-yl)ethyl)piperazin-1-yl)thiazolo[5,4-d]pyrimidin-7-amine], the inhibition at 10 µM in data set [1] turned out to be 19%; in data set [3] it was 25%. The IC50 in data set [1] is over 10 µM. Further, the values for the Ki in data set [3] and in data set [4] were over 10 µM and 0.638 ± 0.056 µM, respectively.

For `CCOC(=O)c1ccc(CNc2nc(N)c3nc(-c4ccco4)sc3n2)cc1` [compound 17, Ethyl 4-(((7-amino-2-(furan-2-yl)thiazolo[5,4-d]pyrimidin-5-yl)amino)methyl)benzoate], the inhibition at 10 µM in data set [1] was 17%; in data set [2] (read-out: hA2AAR percentage of inhibition (I%)) it was 33%; in data set [3], 28%; in data set [4] it was 29%. The half-maximal inhibitory concentration (IC50) in data set [1] is over 10 µM. The Ki in data set [2], in data set [3] and in data set [4] was over 10 µM throughout.

With `Nc1nc(NCC2CCN(CCc3ccccc3)CC2)nc2sc(-c3ccco3)nc12` [compound 21, 2-(Furan-2-yl)-N^5-((1-phenethylpiperidin-4-yl)methyl)thiazolo[5,4-d]pyrimidine-5,7-diamine], the inhibition at 10 µM is 27% in data set [1] and 21% in data set [3]. The IC50 in data set [1] was over 10 µM. The figures for the Ki in data set [2], in data set [3] and in data set [4] were 0.483 ± 0.034 µM, over 10 µM and 0.247 ± 0.018 µM, respectively.

For `Nc1nc(NCCN2CCN(C(=O)c3ccco3)CC2)nc2sc(-c3ccco3)nc12` [compound 15, (4-(2-((7-Amino-2-(furan-2-yl)thiazolo[5,4-d]pyrimidin-5-yl)amino)ethyl)piperazin-1-yl)(furan-2-yl)methanone], in data set [5], it took 0.00942 ± 0.00087 µM to reach half-maximal inhibition (IC50), the “Pharmacological Behavior” value is recorded as “Inverse agonist” and the “Intrinsic Activity” value is on record as −67 ± 5. Besides, in data set [1], the inhibition at 10 µM came to 16% and the IC50 was over 10 µM. This molecule returned a Ki in data set [2] of 0.0108 ± 0.001 µM. Also, in data set [3], the Ki is over 10 µM and the inhibition at 10 µM amounted to 23%. For the same molecule, the Ki in data set [4] amounted to 0.436 ± 0.036 µM.

As for `Nc1nc(NCC2CCN(Cc3ccccc3)CC2)nc2sc(-c3ccco3)nc12` [compound 19, N^5-((1-Benzylpiperidin-4-yl)methyl)-2-(furan-2-yl)thiazolo[5,4-d]pyrimidine-5,7-diamine], in data set [5], it took 0.0148 ± 0.0014 µM to reach half-maximal inhibition (IC50), the “Pharmacological Behavior” value is “Inverse agonist” and the “Intrinsic Activity” value is recorded as −64 ± 4. Besides, in data set [1], the inhibition at 10 µM is 18% and the IC50 is over 10 µM. Further, the affinity in data set [2] corresponds to a Ki of 0.0152 ± 0.0017 µM. In addition, in data set [3], the Ki is over 10 µM and the inhibition at 10 µM was 35%. The same molecule had a Ki in data set [4] of 0.365 ± 0.029 µM.

As for `COCCOc1ccc(N2CCN(c3nc(N)c4nc(-c5ccco5)sc4n3)CC2)cc1` [compound 5, 2-(Furan-2-yl)-5-(4-(4-(2-methoxyethoxy)phenyl)piperazin-1-yl)thiazolo[5,4-d]pyrimidin-7-amine], the inhibition at 10 µM in data set [1] amounted to 7%. In addition, the IC50 in data set [1] is over 10 µM. Further, the Ki came out at 0.326 ± 0.027 µM in data set [2], 0.127 ± 0.015 µM in data set [3] and 2.35 ± 0.213 µM in data set [4].

Take `Nc1nc(N2CCN(c3ccccc3)CC2)nc2sc(-c3ccco3)nc12` [compound 2, 2-(Furan-2-yl)-5-(4-phenylpiperazin-1-yl)thiazolo[5,4-d]pyrimidin-7-amine]: in data set [1], the inhibition at 10 µM was 15% and the IC50 is over 10 µM. Also, in data set [3], the Ki is over 10 µM and the inhibition at 10 µM was determined as 18%. For the same molecule, affinity in data set [4] was put at a Ki of 0.296 ± 0.022 µM.
